Source: US20130030001A1 (priority 2008, published 2013)

Molecular target: T1, human muscarinic acetylcholine M3 receptor (Homo sapiens, UniProt P20309)
T1 construct: expressed in transfected cells; host or cells: CHO-K1 (Chinese Hamster Ovary) cell membranes
Assay: biochemical
Assay type: binding

T1 sequence (P20309 whole entry): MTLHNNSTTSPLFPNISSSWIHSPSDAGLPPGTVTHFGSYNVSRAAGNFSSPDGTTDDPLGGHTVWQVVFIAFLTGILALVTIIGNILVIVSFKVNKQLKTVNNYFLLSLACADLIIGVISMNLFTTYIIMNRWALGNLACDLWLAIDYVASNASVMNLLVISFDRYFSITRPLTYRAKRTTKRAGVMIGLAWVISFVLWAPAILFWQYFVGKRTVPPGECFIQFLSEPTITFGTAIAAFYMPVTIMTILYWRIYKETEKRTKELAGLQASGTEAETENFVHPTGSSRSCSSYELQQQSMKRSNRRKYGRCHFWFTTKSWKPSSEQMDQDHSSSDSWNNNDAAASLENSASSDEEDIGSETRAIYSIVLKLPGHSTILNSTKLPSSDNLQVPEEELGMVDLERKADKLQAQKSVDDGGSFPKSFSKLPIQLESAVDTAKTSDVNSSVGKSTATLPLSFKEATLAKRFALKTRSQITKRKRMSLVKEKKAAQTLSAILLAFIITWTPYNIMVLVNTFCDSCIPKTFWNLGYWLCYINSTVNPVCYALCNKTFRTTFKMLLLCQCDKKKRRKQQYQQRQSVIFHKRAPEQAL

SMILES	IC50 (M3 binding IC50)	IC50 (pIC50)
Cc1ccc(NC(=O)C[N+]23CCC(CC2)[C@@H](OC(=O)C2(c4ccccc4)CCCCCC2)C3)cn1 [Example 1, (R)-1-[(6-Methyl-pyridin-3-ylcarbamoyl)-methyl]-3-(1-phenyl-cycloheptanecarbonyloxy)-1-azonia-bicyclo[2.2.2]octane chloride]	< 2 nM	0.794 nM
Cc1cncc(NC(=O)C[N+]23CCC(CC2)[C@@H](OC(=O)C2(c4ccccc4)CCCCCC2)C3)n1 [Example 2, (R)-1-[(6-Methyl-pyrazin-2-ylcarbamoyl)-methyl]-3-(1-phenyl-cycloheptanecarbonyloxy)-1-azonia-bicyclo[2.2.2]octane bromide]	< 2 nM	–
O=C(C[N+]12CCC(CC1)[C@@H](OC(=O)C1(c3ccccc3)CCCCCC1)C2)Nc1ccc(C(F)(F)F)nn1 [Example 3, (R)-3-(1-Phenyl-cycloheptanecarbonyloxy)-1-[(6-trifluoromethyl-pyridazin-3-ylcarbamoyl)-methyl]-1-azonia-bicyclo[2.2.2]octane bromide]	2 to 10 nM	–
O=C(C[N+]12CCC(CC1)[C@@H](OC(=O)C1(c3ccccc3)CCCCCC1)C2)Nc1noc2ccccc12 [Example 4, (R)-1-(Benzo[d]isoxazol-3-ylcarbamoylmethyl)-3-(1-phenyl-cycloheptanecarbonyloxy)-1-azonia-bicyclo[2.2.2]octane chloride]	< 2 nM	–
O=C(C[N+]12CCC(CC1)[C@@H](OC(=O)C1(c3cccs3)CCCCCC1)C2)Nc1cccnn1 [Example 5, (R)-1-(Pyridazin-3-ylcarbamoylmethyl)-3-(1-thiophen-2-yl-cycloheptanecarbonyloxy)-1-azonia-bicyclo[2.2.2]octane bromide]	< 2 nM	0.398 nM
Cc1cc(NC(=O)C[N+]23CCC(CC2)[C@@H](OC(=O)C2(c4cccs4)CCCCCC2)C3)no1 [Example 6, (R)-1-[(5-Methyl-isoxazol-3-ylcarbamoyl)-methyl]-3-(1-thiophen-2-yl-cycloheptanecarbonyloxy)-1-azonia-bicyclo[2.2.2]octane bromide]	< 2 nM	–
Cc1cc(NC(=O)C[N+]23CCC(CC2)[C@@H](OC(=O)C2(c4cccs4)CCCCCC2)C3)on1 [Example 7, (R)-1-[(3-Methyl-isoxazol-5-ylcarbamoyl)-methyl]-3-(1-thiophen-2-yl-cycloheptanecarbonyloxy)-1-azonia-bicyclo[2.2.2]octane bromide]	2 to 10 nM	–
O=C(C[N+]12CCC(CC1)[C@@H](OC(=O)C1(c3cccs3)CCCCCC1)C2)Nc1cccc(F)c1 [Example 8, (R)-1-[(3-Fluoro-phenylcarbamoyl)-methyl]-3-(1-thiophen-2-yl-cycloheptanecarbonyloxy)-1-azonia-bicyclo[2.2.2]octane bromide]	< 2 nM	–
Cc1cnc(NC(=O)C[N+]23CCC(CC2)[C@@H](OC(=O)C2(c4cccs4)CCCCCC2)C3)cn1 [Example 9, (R)-1-[(5-Methyl-pyrazin-2-ylcarbamoyl)-methyl]-3-(1-thiophen-2-yl-cycloheptanecarbonyloxy)-1-azonia-bicyclo[2.2.2]octane bromide]	< 2 nM	–
O=C(C[N+]12CCC(CC1)[C@@H](OC(=O)C1(c3cccs3)CCCCCC1)C2)Nc1noc2ccccc12 [Example 10, (R)-1-(Benzo[d]isoxazol-3-ylcarbamoylmethyl)-3-(1-thiophen-2-yl-cycloheptanecarbonyloxy)-1-azonia-bicyclo[2.2.2]octane chloride]	< 2 nM	–
O=C(C[N+]12CCC(CC1)[C@@H](OC(=O)C1(c3ccccc3)CCCCCC1)C2)Nc1ccncc1 [Example 16, (R)-3-(1-Phenyl-cycloheptanecarbonyloxy)-1-(pyridin-4-ylcarbamoylmethyl)-1-azonia-bicyclo[2.2.2]octane chloride]	< 2 nM	–
Cc1ccc(NC(=O)C[N+]23CCC(CC2)[C@@H](OC(=O)C2(c4ccccc4)CCCCCC2)C3)nc1 [Example 18, (R)-1-[(5-Methyl-pyridin-2-ylcarbamoyl)-methyl]-3-(1-phenyl-cycloheptanecarbonyloxy)-1-azonia-bicyclo[2.2.2]octane chloride]	< 2 nM	–
